The text below walks through data of patent US20120214760A1, “TREATMENT OF URINARY TRACT INFECTIONS WITH ANTIBACTERIAL AMINOGLYCOSIDE COMPOUNDS” (Achaogen, Inc., priority 2009, published 2012).

Assay [1] relates to E. coli ATCC 25922 (AECO001). Put plainly: MIC, CLSI broth microdilution. It is filed as cell-based. As to conditions: Escherichia coli. As for the experimental part:
(§1) Minimum inhibitory concentrations (MIC) were determined by reference Clinical and Laboratory Standards Institute (CLSI) broth microdilution methods per M7-A7 [2006]. Quality control ranges utilizing E. coli ATCC 25922, P. aeruginosa ATCC 27853 and S. aureus ATCC 29213, and interpretive criteria for comparator agents were as published in CLSI M100-S17 [2007]. Briefly, serial two-fold dilutions of the test compounds were prepared at 2× concentration in Mueller Hinton Broth. The compound dilutions were mixed in 96-well assay plates in a 1:1 ratio with bacterial inoculum. The inoculum was prepared by suspension of a colony from an agar plate that was prepared the previous day. Bacteria were suspended in sterile saline and added to each assay plate to obtain a final concentration of 5×10^5 CFU/mL. The plates were incubated at 35° C. for 20 hours in ambient air.
(In general: Broth dilution looks for growth in wells or tubes with falling amounts of substance.)

The test system of assay [2] is P. aeruginosa ATCC 27853 (APAE001). Description: MIC, CLSI broth microdilution. Type of assay: cell-based. As to conditions: for MIC: Pseudomonas aeruginosa. As for the experimental part: as §1
[3] abbreviates: ATCC25922, read-out: MIC AECO001, Table 1, AECO001 is ATCC25922.
Where [4] appears, read: ATCC27853, read-out: MIC APAE001, Table 1, APAE001 is ATCC27853.

≈ marks a conversion by molar mass, not a printed value. Like-named read-outs stand apart in the source and are kept apart here.

Usually MIC stands for the least concentration at which growth counts as inhibited. For the compound `CN[C@@H]1[C@@H](O)[C@@H](O[C@@H]2[C@@H](O)[C@H](O[C@H]3OC(CNCC4CCNCC4)=CC[C@H]3N)[C@@H](N)C[C@H]2NC(=O)[C@H](O)CCN)OC[C@]1(C)O` [Example 4, 6′-(Methyl-piperidin-4-yl)-1-(4-amino-2(R)-hydroxy-butyryl)-sisomicin], the MIC in assay [1] (setting [3]) and in assay [2] (setting [4]) was 1 to 16 µg/mL (≈ 1.55 to 24.8 µM) throughout.
With `CN[C@@H]1[C@@H](O)[C@@H](O[C@@H]2[C@@H](O)[C@H](O[C@H]3OC(CNC[C@H](O)CO)=CC[C@H]3N)[C@@H](N)C[C@H]2NC(=O)[C@@H](O)CCN)OC[C@]1(C)O` [Example 28, 6′-(2(S)-Hydroxy-propanol)-1-(4-amino-2(S)-hydroxy-butyryl)-sisomicin], the MIC in assay [1] (setting [3]) and in assay [2] (setting [4]) was 1 to 16 µg/mL (≈ 1.61 to 25.7 µM) in each case.
For the compound `CN[C@@H]1[C@@H](O)[C@@H](O[C@@H]2[C@@H](O)[C@H](O[C@H]3OC(CN)=CC[C@H]3NCC(N)CO)[C@@H](N)C[C@H]2NC(=O)[C@@H](O)CCN)OC[C@]1(C)O` (stereo partly drawn) [Example 97, 2′-(2-Amino-propanol)-1-(4-amino-2(S)-hydroxy-butyryl)-sisomicin], the MIC in assay [1] (setting [3]) is < 1 µg/mL. Further, the “MIC APAE001” value in assay [2] (Table 1, APAE001 is ATCC27853) is “B (MIC's of greater than 1.0 μg/mL to 16.0 μg/mL = B)”.
`CN[C@@H]1[C@@H](O)[C@@H](O[C@@H]2[C@@H](O)[C@H](O[C@H]3OC(CNCCCN)=CC[C@H]3N)[C@@H](N)C[C@H]2NC(=O)C(O)C2CNC2)OC[C@]1(C)O` (stereo partly shown) [Example 76, 6′-(3-Amino-propyl)-1-(2-(azetidin-3-yl)-2-hydroxy-acetyl)-sisomicin]: the MIC in assay [1] (setting [3]) and in assay [2] (setting [4]) was 1 to 16 µg/mL (≈ 1.62 to 25.9 µM) each time.
In the case of `CN[C@@H]1[C@@H](O)[C@@H](O[C@@H]2[C@@H](O)[C@H](O[C@H]3OC(CNCC(O)CO)=CC[C@H]3N)[C@@H](N)C[C@H]2NS(=O)(=O)CCN)OC[C@]1(C)O` (stereo partly shown) [Example 27, 6′-(2-Hydroxy-propanol)-1-(2-amino-ethylsulfonamide)-sisomicin], the minimum inhibitory concentration (MIC) in assay [1] (setting [3]) is 1 to 16 µg/mL (≈ 1.59 to 25.4 µM); in assay [2] (setting [4]), > 16 µg/mL.
Consider `CN[C@@H]1[C@@H](O)[C@@H](O[C@@H]2[C@@H](O)[C@H](O[C@H]3OC(CNCCCN)=CC[C@H]3N)[C@@H](N)C[C@H]2NS(=O)(=O)CCN)OC[C@]1(C)O` [Example 26, 6′-(3-Amino-propyl)-1-(2-amino-ethylsulfonamide)-sisomicin], for which the MIC in assay [1] (setting [3]) and in assay [2] (setting [4]) was 1 to 16 µg/mL (≈ 1.63 to 26.2 µM) throughout.
`CN[C@@H]1[C@@H](O)[C@@H](O[C@@H]2[C@@H](O)[C@H](O[C@H]3OC(CNCC4(CN)CC4)=CC[C@H]3N)[C@@H](N)C[C@H]2NC(=O)C2(O)CCNC2)OC[C@]1(C)O` (stereo partly shown) [Example 79]: the figures for the minimal inhibitory concentration (MIC) in assay [1] (setting [3]) and in assay [2] (setting [4]) were 1 to 16 µg/mL (≈ 1.55 to 24.9 µM) and > 16 µg/mL, respectively.
For `CN[C@@H]1[C@@H](O)[C@@H](O[C@@H]2[C@@H](O)[C@H](O[C@H]3OC(CNCC4CCNCC4)=CC[C@H]3N)[C@@H](N)C[C@H]2NC(=O)[C@H](O)CN)OC[C@]1(C)O` [Example 8, 6′-Methyl-piperidinyl-1-(3-amino-2(R)-hydroxy-propionyl)-sisomicin], in that order: < 1 µg/mL and 1 to 16 µg/mL (≈ 1.58 to 25.3 µM).
As to `CN[C@@H]1[C@@H](O)[C@@H](O[C@@H]2[C@@H](O)[C@H](O[C@H]3OC(CNCC(O)CN)=CC[C@H]3N)[C@@H](N)C[C@H]2NC(=O)[C@@H](O)CN)OC[C@]1(C)O` (stereo partly drawn) [Example 22, 6′-(3-Amino-2-hydroxy-propyl)-1-(3-amino-2(S)-hydroxy-propionyl)-sisomicin], the MIC fell in the range of 1 to 16 µg/mL (≈ 1.65 to 26.3 µM) in assay [1] (ATCC25922, Table 2, read-out: MIC E. coli); 1 to 16 µg/mL (≈ 1.65 to 26.3 µM) in assay [1] (Table 1, AECO001 is ATCC25922, read-out: MIC AECO001); 1 to 16 µg/mL (≈ 1.65 to 26.3 µM) in assay [2] (ATCC27853, Table 2, read-out: MIC P. aeruginosa).
With `CN[C@@H]1[C@@H](O)[C@@H](O[C@@H]2[C@@H](O)[C@H](O[C@H]3OC(CN)=CC[C@H]3NCCCCN)[C@@H](N)C[C@H]2NC(=O)[C@@H](O)CCN)OC[C@]1(C)O` [Example 102, 2′-(4-Amino-butyl)-1-(4-amino-2(S)-hydroxy-butyryl)-sisomicin], the minimal inhibitory concentration (MIC) in assay [1] (setting [3]) was < 1 µg/mL; in assay [2] (setting [4]), 1 to 16 µg/mL (≈ 1.61 to 25.8 µM).
For `CN[C@@H]1[C@@H](O)[C@@H](O[C@@H]2[C@@H](O)[C@H](O[C@H]3OC(CN)=CC[C@H]3NC(=O)C3CCCN3)[C@@H](N)C[C@H]2NC(=O)[C@@H](O)CCN)OC[C@]1(C)O` (stereo partly shown) [Example 90], the minimum inhibitory concentration (MIC) in assay [1] (setting [3]) was < 1 µg/mL; in assay [2] (setting [4]), 1 to 16 µg/mL (≈ 1.55 to 24.8 µM).
As to `CN[C@@H]1[C@@H](O)[C@@H](O[C@@H]2[C@@H](O)[C@H](O[C@H]3OC(CNCC(O)CCCN)=CC[C@H]3N)[C@@H](N)C[C@H]2NC(=O)[C@@H](O)CCN)OC[C@]1(C)O` (stereo partly drawn) [Example 32, 6′-(2-Hydroxy-5-amino-pentyl)-1-(4-amino-2(S)-hydroxy-butyryl)-sisomicin], the MIC is < 1 µg/mL in assay [1] (setting [3]) and 1 to 16 µg/mL (≈ 1.54 to 24.6 µM) in assay [2] (setting [4]).
With `CN[C@@H]1[C@@H](O)[C@@H](O[C@@H]2[C@@H](O)[C@H](O[C@H]3OC(CNC[C@H](O)C(=O)O)=CC[C@H]3N)[C@@H](N)C[C@H]2NC(=O)[C@@H](O)CCN)OC[C@]1(C)O` [Example 50, 6′-(2(S)-Hydroxy-3-propanoic)-1-(4-amino-2(S)-hydroxy-butyryl)-sisomicin], the minimum inhibitory concentration (MIC) in assay [1] (setting [3]) and in assay [2] (setting [4]) was > 16 µg/mL throughout.
On to `CN[C@@H]1[C@@H](O)[C@@H](O[C@@H]2[C@@H](O)[C@H](O[C@H]3OC(CNC[C@H]4C[C@H](N)C4)=CC[C@H]3N)[C@@H](N)C[C@H]2NC(=O)C2(O)CNC2)OC[C@]1(C)O` [Example 63], for which the MIC in assay [1] (setting [3]) is < 1 µg/mL; in assay [2] (setting [4]), 1 to 16 µg/mL (≈ 1.59 to 25.4 µM).
With `CN[C@@H]1[C@@H](O)[C@@H](O[C@@H]2[C@@H](O)[C@H](O[C@H]3OC(CNC(=O)C(O)CN)=CC[C@H]3N)[C@@H](N)C[C@H]2NC(=O)[C@@H](O)CN)OC[C@]1(C)O` (stereo partly drawn) [Example 20, 6′-(3-Amino-2-hydroxy-propionyl)-1-(3-amino-2(S)-hydroxy-propionyl)-sisomicin], the minimum inhibitory concentration (MIC) in assay [1] (setting [3]) and in assay [2] (setting [4]) was > 16 µg/mL throughout.
As for `CN[C@@H]1[C@@H](O)[C@@H](O[C@@H]2[C@@H](O)[C@H](O[C@H]3OC(CN)=CC[C@H]3NC[C@H](C)N)[C@@H](N)C[C@H]2NC(=O)[C@@H](O)CCN)OC[C@]1(C)O` [Example 95, 2′-(2(S)-Amino-propyl)-1-(4-amino-2(S)-hydroxy-butyryl)-sisomicin], the figures for the MIC in assay [1] (setting [3]) and in assay [2] (setting [4]) were < 1 µg/mL and > 16 µg/mL, respectively.
For `CN[C@@H]1[C@@H](O)[C@@H](O[C@@H]2[C@@H](O)[C@H](O[C@H]3OC(CNCCO)=CC[C@H]3N)[C@@H](N)C[C@H]2NC(=O)[C@H](O)CN)OC[C@]1(C)O` [Example 9, 6′-(2-Hydroxy-ethyl)-1-(3-amino-2(R)-hydroxy-propionyl)-sisomicin], the MIC in assay [1] (setting [3]) is 1 to 16 µg/mL (≈ 1.73 to 27.6 µM); in assay [2] (setting [4]), > 16 µg/mL.
Turning to `CN[C@@H]1[C@@H](O)[C@@H](O[C@@H]2[C@@H](O)[C@H](O[C@H]3OC(CNCC4(O)CC(N)C4)=CC[C@H]3N)[C@@H](N)C[C@H]2NC(=O)C(O)C2CNC2)OC[C@]1(C)O` (stereo partly shown) [Example 83, 6′-(Methyl-3-amino-1-hydroxy-cyclobutyl)-1-(2-(azetidin-3-yl)-2-hydroxy-acetyl)-sisomicin], the MIC in assay [1] (setting [3]) was 1 to 16 µg/mL (≈ 1.52 to 24.3 µM); in assay [2] (setting [4]), > 16 µg/mL.
For `CN[C@@H]1[C@@H](O)[C@@H](O[C@@H]2[C@@H](O)[C@H](O[C@H]3OC(CNCCC4(O)CNC4)=CC[C@H]3N)[C@@H](N)C[C@H]2NC(=O)[C@@H](O)CN)OC[C@]1(C)O` [Example 70, 6′-(Ethyl-2-(3-hydroxy-azetidin-3-yl))-1-(3-amino-2(S)-hydroxy-propionyl)-sisomicin], the MIC in assay [1] (setting [3]) is 1 to 16 µg/mL (≈ 1.58 to 25.2 µM); in assay [2] (setting [4]), > 16 µg/mL.
Regarding `CN[C@@H]1[C@@H](O)[C@@H](O[C@@H]2[C@@H](O)[C@H](O[C@H]3OC(CNCCO)=CC[C@H]3NC(=N)N)[C@@H](N)C[C@H]2N)OC[C@]1(C)O` [Example 106, 6′-(2-Hydroxy-ethyl)-2′-guanidinium-sisomicin], the MIC in assay [1] (setting [3]) is < 1 µg/mL; in assay [2] (setting [4]) it was 1 to 16 µg/mL (≈ 1.87 to 30 µM).
For the compound `CN[C@@H]1[C@@H](O)[C@@H](O[C@@H]2[C@@H](O)[C@H](O[C@H]3OC(CN)=CC[C@H]3NC(=O)CN)[C@@H](N)C[C@H]2NC(=O)[C@@H](O)CCN)OC[C@]1(C)O` [Example 87, 2′-(2-Amino-acetyl)-1-(4-amino-2(S)-hydroxy-butyryl)-sisomicin], the MIC in assay [1] (setting [3]) and in assay [2] (setting [4]) was 1 to 16 µg/mL (≈ 1.65 to 26.4 µM) each time.
With `CN[C@@H]1[C@@H](O)[C@@H](O[C@@H]2[C@@H](O)[C@H](O[C@H]3OC(CNCC(O)CO)=CC[C@H]3N)[C@@H](N)C[C@H]2NC(=O)[C@H](O)CN)OC[C@]1(C)O` (stereo partly drawn) [Example 10, 6′-(2-Hydroxy-propanol)-1-(3-amino-2(R)-hydroxy-propionyl)-sisomicin], the minimum inhibitory concentration (MIC) in assay [1] (setting [3]) and in assay [2] (setting [4]) was 1 to 16 µg/mL (≈ 1.64 to 26.3 µM) in each case.
Take `CN[C@@H]1[C@@H](O)[C@@H](O[C@@H]2[C@@H](O)[C@H](O[C@H]3OC(CN)=CC[C@H]3NCCO)[C@@H](N)C[C@H]2NC(=O)[C@@H](O)CCN)OC[C@]1(C)O` [Example 98, 2′-(2-Hydroxy-ethyl)-1-(4-amino-2(S)-hydroxy-butyryl)-sisomicin]: the MIC in assay [1] (setting [3]) and in assay [2] (setting [4]) was 1 to 16 µg/mL (≈ 1.69 to 27 µM) each time.
With `CN[C@@H]1[C@@H](O)[C@@H](O[C@@H]2[C@@H](O)[C@H](O[C@H]3OC(CNCCO)=CC[C@H]3N)[C@@H](N)C[C@H]2NC(=O)C2(O)CC(N)C2)OC[C@]1(C)O` (stereo partly shown) [Example 62], the MIC is < 1 µg/mL in assay [1] (setting [3]) and 1 to 16 µg/mL (≈ 1.65 to 26.5 µM) in assay [2] (setting [4]).
